Source: ChEMBL document CHEMBL2346622, “Novel tacrine-related drugs as potential candidates for the treatment of Alzheimer's disease” (Bioorg Med Chem Lett, 2013)

Key:
[1] = target: T1, Acetylcholinesterase (Rattus norvegicus) (UniProt P37136); test: (§1) Inhibition of rat brain acetylcholinesterase
T1 sequence (whole entry): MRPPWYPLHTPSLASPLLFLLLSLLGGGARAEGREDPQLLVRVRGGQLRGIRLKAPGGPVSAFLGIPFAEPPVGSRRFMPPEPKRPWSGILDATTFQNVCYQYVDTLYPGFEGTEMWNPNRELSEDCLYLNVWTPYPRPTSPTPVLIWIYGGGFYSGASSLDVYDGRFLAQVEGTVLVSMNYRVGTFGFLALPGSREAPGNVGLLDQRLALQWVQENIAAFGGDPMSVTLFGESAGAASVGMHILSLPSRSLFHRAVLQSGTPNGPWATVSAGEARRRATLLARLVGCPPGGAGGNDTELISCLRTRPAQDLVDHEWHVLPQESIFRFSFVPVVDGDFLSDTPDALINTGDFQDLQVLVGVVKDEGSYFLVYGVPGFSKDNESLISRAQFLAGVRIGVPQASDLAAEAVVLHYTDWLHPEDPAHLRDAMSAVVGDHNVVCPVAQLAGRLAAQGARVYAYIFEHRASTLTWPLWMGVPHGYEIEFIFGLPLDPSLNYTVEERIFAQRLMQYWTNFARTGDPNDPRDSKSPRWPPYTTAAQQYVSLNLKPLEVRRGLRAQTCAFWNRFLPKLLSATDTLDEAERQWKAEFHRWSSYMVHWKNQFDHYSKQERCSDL

Acetylcholinesterase = target: T2, Acetylcholinesterase (Rattus norvegicus, UniProt P37136); test: as §1
T2 sequence (P37136 whole entry): T1 sequence (whole entry)

c1ccc2c(NCCCCCCCN3CCCCC3)c3c(nc2c1)CCCC3
Imax [1]: 95%
IC50 (Acetylcholinesterase): 20.4 nM
